In one series the test system is primary MM cells. The series is described as follows: Assay on primary MM cells of patients (flow cytometry). Format: cell-based, human. As to conditions: n=5, with IL-6. On the procedure: (§1) Primary MM cells were treated with Ironomycin (A) or AM-23 (B) and incubated during 96H with IL-6. The toxicity on MM cells and non-MM cells was analyzed by flow cytometry and expressed in % of control.
(§2) Bone marrow samples were collected after patients' written informed consent in accordance with the Declaration of Helsinki and institutional research board approval from Montpellier University hospital. Cells are obtained from […] of 5 patients with MM. Cells are obtained by density gradient separation and qualified by Flow cytometry.
(§3) Cells are cultured in Gibco® RPMI-1640 (Glutamax) medium (#6187-010) with 10% FBS at a density of 0.5×10^6 Cell/mL with 2 ng/mL of interleukin-6. Cells are seeded 24H after thawing and treated with various compounds during 72H.
(§4) Total cells were counted with trypan blue and stained with the panel CD38-APC, CD138-PE (Beckman coulter) and analyzed by flow cytometry (Fortessa cytometer, BD Pharmigen). Tumorous MM cells were gated on CD38+ and CD138+.

Another series deals with non-MM cells. In words: Assay on primary samples of patients, non-MM cells (flow cytometry). In kind it is cell-based, human. To be noted: primary samples of patients, n=5. The procedure: as §1, §2, §3, §4
A further series concerns MM cell lines. In words: Cell growth inhibition in panel of MM cell lines. Format: cell-based, human. To be noted: 96H. The procedure: (§5) The panel of 17 HMCL cell lines were incubated with increasing concentrations of Ironomycin (A), AM23 (B) or vehicle for 96H.
(§6) HMCL cell lines were cultured for 4 days in 96-well flat-bottom microtiter plates in RPMI 1640 medium or DMEM medium, 10% or 20% FCS (control medium) in the presence of various compounds. The number of viable cells in culture was determined using the Cell Titer-Glo Luminescent Cell Viability Assay from Promega, Madison, WI, USA using a Centro LB 960 luminometer (Berthold Technologies, Bad Wildbad, Germany).
(§7) This test is based on quantitation of the intracellular ATP present, which signals the presence of metabolically active cells. Data are expressed as the mean percentage of six replicates, normalized to the untreated control.
The therapeutic interest of iron metabolism inhibitors AM5 (Ironomycin) and AM23 was further investigated using large collection of 18 MM cell lines (Moreaux J et al. Haematologica 2011; Vikova V et al. Theranostics 2019). The IC50 of Ironomycin and AM23 respectively are illustrated in the Table 5 hereunder: […]

A further series concerns XG12. In words: Cell viability assay (Cell Titer-Glo), HMCL. In kind it is cell-based. As to conditions: Homo sapiens, 96 h. The procedure: as §5, §6, §7
A further series deals with XG28. The series is described as follows: Cell viability assay (Cell Titer-Glo), HMCL. In kind it is cell-based. As to conditions: Homo sapiens, 96 h. The procedure:
as §5, §6, §7
On the technique in general: Cellular ATP, detected with luciferase, serves as a proxy for viable cell number.

For a further series, the system named is XG24. The series is described as follows: Cell viability assay (Cell Titer-Glo), HMCL. In kind it is cell-based. To be noted: Homo sapiens, 96 h. The procedure: as §5, §6, §7
The subject of the next series is MOLP-8. In words: Cell viability assay (Cell Titer-Glo), HMCL. As to conditions: Homo sapiens, MOLP-8, 96 h. Format: cell-based. The procedure: as §5, §6, §7
The subject of the next series is XG20. The series is described as follows: Cell viability assay (Cell Titer-Glo), HMCL. Format: cell-based. As to conditions: Homo sapiens, 96 h. On the procedure: as §5, §6, §7
A further series has as its system OPM-2. In words: Cell viability assay (Cell Titer-Glo), HMCL. In kind it is cell-based. To be noted: Homo sapiens, OPM-2, 96 h. On the procedure: as §5, §6, §7
In the next series the test system is XG21. The series is described as follows: Cell viability assay (Cell Titer-Glo), HMCL. Format: cell-based. As to conditions: Homo sapiens, 96 h. On the procedure:
as §5, §6, §7

In another series the test system is XG6. In words: Cell viability assay (Cell Titer-Glo), HMCL. Format: cell-based. As to conditions: Homo sapiens, XG6, 96 h. On the procedure: as §5, §6, §7
A further series has as its system XG-1. In words: Cell viability assay (Cell Titer-Glo), HMCL. Format: cell-based. To be noted: Homo sapiens, 96 h. The procedure:
as §5, §6, §7

A further series deals with XG-7. In words: Cell viability assay (Cell Titer-Glo), HMCL. In kind it is cell-based. As to conditions: Homo sapiens, 96 h. On the procedure: as §5, §6, §7

In general, IC50 refers to the midpoint of a concentration-inhibition curve. Low values mean greater potency in that assay, high ones weaker potency in that assay.

On to `CC[C@@H](C(=O)[C@@H](C)[C@@H](O)[C@H](C)[C@@H]1O[C@@H]([C@@H](CC)C(=O)O)CC[C@@H]1C)[C@H]1O[C@]2(C=C[C@@H](NC3CC3)[C@]3(CC[C@@](C)([C@H]4CC[C@](O)(CC)[C@H](C)O4)O3)O2)[C@H](C)C[C@@H]1C` [AM23], for which the “toxicity on primary MM cells of patients” value in the series with primary MM cells is reported as “validated the therapeutic interest”. In addition, the “toxicity for non-tumoral cells” value in the series on non-MM cells is “without significant toxicity”. Also, the “cell growth inhibition / toxicity on MM cell lines” value in the series with MM cell lines was “validated the toxicity”; in the series on MM cell lines (listed as AM-23), “kill MM cells with nanomolar concentration”. For the same compound, the IC50 was found to be 0.0008 µM in the series with XG12; 0.013 µM in the series on XG28; 0.0088 µM in the series on XG24; 0.013 µM with MOLP-8; 0.154 µM in the series on XG20; 0.0014 µM in the series on OPM-2. The IC50 in the series with XG21 was 0.0343 µM; in the series on XG6, 0.0038 µM; in the series with XG-1, 0.0211 µM; in the series with XG-7 it was 0.0118 µM.

Source of the values: patent publication US20250281449A1, “NITROGEN-CONTAINING ANALOGS OF SALINOMYCIN FOR USE IN MULTIPLE MYELOMA (MM)” (Centre National de la Recherche Scientifique, priority 2021, published 2025).
